{"source": "patent US20090197957A1", "about": "“Methods and compositions for the treatment of pain” (Nuon Therapeutics, Inc., priority 2005, published 2009)", "key": {"[1]": {"conditions": "patients in a colorectal adenoma prevention trial; cited from earlier work"}, "[2]": {"conditions": "similar adenoma prevention trial; cited from earlier work"}, "[3]": {"tested_on": "acetic acid-induced writhing", "test": "Analgesia, acetic acid writhing in mice (Example 3)", "type": "in vivo, mouse", "conditions": "100 mg/kg PO", "method": "3-Hydroxyanthranilic acid was evaluated for possible analgesic activity in mouse acetic acid-induced pain response assay.\n3-Hydroxyanthranilic acid was purchased from Sigma (USA) by MDS Pharma Services-Taiwan Ltd. and administered orally at the doses of 400, 200 and 100 mg/kg for analgesia, acetic acid-induced writhing assay. 2% Tween 80 was used as the vehicle.\nMale CD-1 (Crl.) mice provided by BioLasco Taiwan (under Charles River Laboratories Technology Licensee) were used. Space allocation for 10 animals was 29×18×13 cm. All animals were maintained in a controlled temperature (23° C.-24° C.) and humidity (60%-70%) environment with 12 hours light dark cycles for at least one week in MDS Pharma Services—Taiwan Laboratory prior to use. Free access to standard lab chow for Mice (LabDiet Rodent Diet, PMI Nutrition International, USA) and tap water was granted. All aspects of this work including housing, experimentation and disposal of animals were performed in general accordance with the Guide for the Care and Use of Laboratory Animals (National Academy Press, Washington, D.C., 1996).\nTest substance was administered orally to groups of 5 CD-1 (Crl.) derived male or female mice weighing 24±2 g, 2 hour before injection of acetic acid (0.5%, 20 ml/kg IP). Reduction in the number of writhes by 50 percent or more (≧50%) per group of animals observed during the 5 to 10 minute period after acetic acid administration, relative to a vehicle-treated control group, indicates possible analgesic activity.\nTest substance was administered orally to groups of 5 mice 1 hour before injection of 0.5% Acetic Acid (20 ml/kg IP). The number of writhing per group of animals observed during the 5 to 10 minute period after acetic acid challenge was observed. Reduction in the number of writhing by 50 percent or more (≧50%) relative to the vehicle-treated control group indicates possible analgesic activity."}, "[4]": {"conditions": "short-term use following coronary artery by-pass surgery; cited from earlier work"}, "[5]": {"tested_on": "acetic acid-induced writhing", "test": "Analgesia, acetic acid writhing in mice (Assay #503900, Example 1)", "type": "in vivo, mouse", "conditions": "30 mg/kg PO, 60 minutes before acetic acid"}}, "note": "“And” between values parts separate entries of the source, which are not always exact repeats. Identical values can stand only once.", "data": [{"smiles": "CS(=O)(=O)c1ccc(C2=C(c3ccccc3)C(=O)OC2)cc1", "note": "[Rofecoxib, rofecoxib]", "values": [{"measurement": "risk of heart attacks or strokes", "setting": "[1]", "value": "double the risk"}]}, {"smiles": "Cc1ccc(-c2cc(C(F)(F)F)nn2-c2ccc(S(N)(=O)=O)cc2)cc1", "note": "[celecoxib]", "values": [{"measurement": "risk of adverse cardiovascular events", "setting": "[2]", "value": "triple the risk"}]}, {"smiles": "CC(=O)Oc1ccccc1C(=O)O", "note": "[Aspirin]", "values": [{"measurement": "No. of Writhing Average", "setting": "[3]; group of 5 mice", "value": 5}, {"measurement": "% Inhibition", "setting": "[3]; relative to vehicle control", "value": "(62) %"}, {"measurement": "No. of Writhing Individual", "setting": "[3]; single mice", "value": "0 and 8 and 3 and 7 and 9"}]}, {"smiles": "Cc1onc(-c2ccccc2)c1-c1ccc(S(N)(=O)=O)cc1", "note": "[valdecoxib]", "values": [{"measurement": "incidence of cardiovascular events", "setting": "[4]", "value": "increased incidence"}]}, {"smiles": "CCC(=O)NS(=O)(=O)c1ccc(-c2c(-c3ccccc3)noc2C)cc1", "note": "[parecoxib]", "values": [{"measurement": "incidence of cardiovascular events", "setting": "[4]", "value": "increased incidence"}]}, {"smiles": "CC(C)Cc1ccc(C(C)C(=O)O)cc1", "note": "(stereo not shown) [Ibuprofen]", "values": [{"measurement": "No. of Writhing Average", "setting": "[5]; group of 5 mice", "value": 8}, {"measurement": "% Inhibition", "setting": "[5]; relative to vehicle control", "value": "(53) %"}, {"measurement": "No. of Writhing Individual", "setting": "[5]; single mice", "value": "6 and 8 (2×) and 10 (2×)"}]}]}
